Assay results published in patent US20110142866A1, “PEPTIDE ANALOGUES AND CONJUGATES THEREOF” (Eldrug S.A., priority 2007, published 2011).
“Also recorded” adds a separate entry of the source. Positions of bridges follow the written chain, without caps; N, C: chain ends. No end group written: not given here.

Assays:
MBP72-85 induced EAE = experiment: Induction-inhibition of MBP-EAE in Lewis rats; format: in vivo; conditions: co-injection (500 μg) with MBP72-85 (25 μg)
[1] = tested on: IFN-γ secretion by T cells; experiment: IFN-γ ELISpot of spleen cells from immunized mice; format: in vivo, SJL/J mice; conditions: for cross-reaction of IFN-γ producing T cells with native MBP87-99 peptide: recall peptide native MBP87-99
Experimental: (§1) Female 6-8 week old SJL/J mice used in all experiments, were purchased from Walter and Eliza Hall Institute (VIC Australia) and housed at the Biological Research Laboratory at Burnet Institute at Austin, Heidelberg, Australia. SJL/J mice were immunized twice on days 0, 14 intradermally (base of tail) with 50 μg MBP83-99 peptide analogue-KLH-reduced mannan.
(§2) ELISpot analyses specific T cell responses to antigens by detecting the secretion of specific cytokines. Spleen cells from immunized SJL/J mice were isolated 14 days after immunization and assessed by ELISpot for IFN-γ, IL-4 or IL-10 secretion by T cells. IFN-γ ELISpot assay was performed on MultiScreen-IP Filter Plate (MAIP S4510) with hydrophobic PVDF filters (Millipore, UK) while IL-4 and IL-10 ELISpot was performed on MultiScreen-HA Filter Plate (MAHA S4510) with mixed cellulose esters filters (Millipore, UK). MAIP S4510 plates were pre-wet with 50 μl of 70% ethanol, washed 5 times with 200 μl sterile PBS and coated with 70 μl of 5 μg/ml anti-IFN-γ capture antibody, AN18 (Mabtech, Australia) in PBS and left to incubate at 4° C. O/N. While 70 μl of 5 μg/ml anti-IL-4 and anti-IL-10 capture antibody (Mabtech, Australia) was added directly to MAHA S4510 plates and incubated at 4° C. O/N without 70% ethanol treatment. Following 5 washes with PBS, plates were blocked by adding 200 μl of culture media (supplemented with 2.5% FCS) and incubated for 2 hours at 37° C. The blocking media was discarded and 10 μg/ml recall peptides (MBP83-99 peptide analogues not conjugated to KLH-reduced mannan) were added into each defined well. Con A (1.0 μg/ml; IL-4 and IFN-γ) or LPS (1.0 μg/ml; IL-10) were used as an internal positive controls and no peptide was used as negative control. Triplicate wells were set up for each condition. 5×10^5 spleen cells in 100 μl culture media were seeded into each well and incubated for 18 hours for IFN-γ, 24 hours for IL-4 and 48 hours for IL-10 at 37° C. Plates were washed 5 times PBS/0.05% Tween 20 and 5 times PBS and incubated for 2 hours at RT with anti-murine IFN-γ, IL-4 or IL-10 monoclonal antibody-biotin. Plates were washed and streptavidin-ALP was added at 1.0 μg/ml and incubated for 2.0 hours at RT. Spots of activity were detected using a colorimetric AP kit (Biorad, Hercules, Calif. USA) and counted using an AID ELISpot plate reader (Autoimmun Diagnostika GmbH, Germany). Data are presented as mean spot forming units (sfu) per 0.5×10^6 cells +/−standard error of the mean (SEM).
(§3) MBP87-99, [R^91, A^96]MBP87-99 or [A^91, A^96]MBP87-99 peptides were dissolved in PBS and emulsified in an equal volume of complete Freund's adjuvant (CFA) which contained 1.0 mg/ml of heat killed Mycobacterium tuberculosis H37RA (Sigma, Victoria, Australia). SJL/J mice were given one subcutaneous injection containing 50 μg peptide into the base of tail.
(§4) SJL/J mice were immunized twice on days 0 and 14 intradermally (base of tail) with 50 μg MBP87-99-KLH-reduced mannan, [R^91, A^96]MBP87-99-KLH-reduced mannan or [A^91, A^96]MBP87-99-KLH-reduced mannan conjugates.
(§5) ELISpot detects specific T cell responses to antigens by measuring the secretion of specific cytokines from individual cells. Spleen cells from immunized SJL/J mice were isolated 28 days after CFA immunization or 14 days after the last immunization with reduced mannan-peptides and assessed by ELISpot for IFN-γ and IL-4 secretion by T cells. IFN-γ ELISpot assay was performed on MultiScreen-IP Filter Plate (MAIP S4510) with hydrophobic PVDF filters (Millipore, UK), while IL-4 ELISpot assays were performed on MultiScreen-HA Filter Plate (MAHA S4510) with mixed cellulose esters filters (Millipore, UK). MAIP S4510 plates were pre-weted with 50 μl of 70% ethanol, washed 5 times with 200 μl of sterile phosphate-buffered saline (PBS) and coated with 70 μl of 5 μg/ml anti-IFN-γ capture antibody, AN18 (Mabtech, Australia) in PBS and incubated O/N at 4° C. […]

[2] = tested on: IL-4 secretion by T cells; experiment: IL-4 ELISpot of spleen cells from immunized mice; format: in vivo, SJL/J mice
Experimental: as §1, §2, §3, §4, §5

[3] = tested on: respective peptides conjugated to BSA or KLH; experiment: ELISA total IgG antibody responses to the respective peptide; format: in vivo, SJL/J mice
Experimental: (§6) Blood was collected and sera isolated from mice prior to and 4 weeks after immunization with CFA or 14 days after the last immunization with reduced mannan conjugates. MBP87-99 or [A^91, A^96]MBP87-99 peptides conjugated to BSA or KLH were coated onto polyvinyl chloride (PVC) microtiter plates at 10 μg/ml in 0.2 M NaHCO3 buffer, pH 9.6, 0/N at 4° C. Non-specific binding was blocked with 2% BSA for 1.0 h at RT. After washing (0.05 Tween 20/PBS), serial dilutions of sera were added and incubated for a further 2 h at RT. The plates were washed and bound antibody was detected using HRP-conjugated sheep anti-mouse antibody (1/1000 dilution in PBS) (Amersham, UK) and developed using 2,2′-azino-di(3-ethylbenzthiazoline)6-sulfonic acid (ABTS) (Sigma, UK). Absorbance at 405 nm was recorded using a Fluostar Optima microplate reader (BMG labtech, Offenburg, Germany).
(§7) ELISpot assays for IFN-γ and IL-4 secretion by T cells and ELISA assays for binding of sera to native MBP protein or peptide were carried out as previously described^3, 4, 20, 21. Mean values were compared using the Student's two-tailed t-test. P value threshold of p<0.01 indicates a statistically significant difference.

native MBP87-99 peptide = experiment: ELISA cross reaction of sera with native MBP87-99 peptide; format: in vivo; conditions: 1/500 and 1/1,000 sera dilutions
Experimental: as §6, §7

[4] = peptide conjugated to reduced mannan
[5] = 50 μg peptide conjugated to reduced mannan, two intradermal injections, spleen cells 14 days post-immunization
[6] = 50 μg peptide emulsified in CFA, one injection, spleen cells 28 days

Substance	inhibition of EAE (MBP72-85 induced EAE)	IL-4 secreting T cells (in words) [2, 5]	IL-4 secreting T cells (in words) [2, 6]	IgG antibody responses (in words) ([3]; peptide emulsified in CFA)	IFN-γ secreting T cells (in words) [1, 5]	IFN-γ secreting T cells (in words) [1, 6]	cross-reaction of IFN-γ producing T cells with native MBP87-99 peptide [1, 4]	cross-reaction of IFN-γ producing T cells with native MBP87-99 peptide ([1]; peptide emulsified in CFA)	cross-reaction of antibodies with native MBP87-99 peptide (native MBP87-99 peptide; [4])	cross-reaction of antibodies with native MBP87-99 peptide (native MBP87-99 peptide; peptide emulsified in CFA)	IgG antibody responses (in words) [3, 4]	further results
Val^87-His-Phe-Phe-Arg^91-Asn-Ile-Val-Thr-Ala^96-Arg-Thr-Pro^99 [cyclo(87-99)[Arg^91, Ala^96] MBP87-99]	strong inhibitor of EAE	–	–	–	–	–	–	–	–	–	–	inhibition of EAE (MBP72-85 induced EAE; listed as cyclo(87-99)[Arg^91,Ala^96]MBP87-99): completely prevented the induction of EAE
VHFFRNIVTARTP [[R^91, A^96]MBP87-99]	–	very high	low levels	–	–	–	–	–	–	–	–	decrease of IFN-γ relative to native MBP87-99 [1, 4]: 70%; decrease of IFN-γ relative to native MBP87-99 ([1]; peptide emulsified in CFA): 30%; inhibition of EAE (MBP72-85 induced EAE; listed as [Arg^91, Ala^96]MBP87-99): completely prevented the development of EAE; inhibition of EAE (MBP72-85 induced EAE; listed as [Arg^91,Ala^96]MBP87-99): completely prevented the induction of EAE
VHFFANIVTARTP [[A^91, A^96]MBP87-99]	–	high levels	high levels	No IgG antibody levels	no IFN-γ was detected	strong levels	did not cross-react	did not cross-react	did not cross-react	did not cross-react	–	–
Val-His-Phe-Phe-Lys^91-Asn-Ile-Val-Thr-Ala^96-Arg-Thr-Pro^99 (VHFFKNIVTARTP; lactam 5-C) [cyclo(91-99)[Ala^96] MBP87-99]	low inhibitory activity	–	–	–	–	–	–	–	–	–	–	–
VHFFKNIVTPRTP [MBP87-99, reference compound]	–	did not induce; also recorded: No detectable	did not induce; also recorded: No detectable	very low levels and Low	high levels	high levels	–	–	–	–	higher levels	–
cyclo, head-to-tail, VHFFANIVTARTP (VHFFXNIVTXRTP; cyclised or stapled) [cyclo(87-99)[A^91, A^96]MBP87-99]	–	moderate levels	moderate levels	no IgG antibodies	reduce IFN-γ production	reduce IFN-γ production	did not cross-react	did not cross-react	did not react	did not react	higher levels	decrease of IFN-γ compared to linear MBP87-99 conjugated to reduced mannan [1, 4]: ~50%; decrease of IFN-γ compared to linear MBP87-99 emulsified in CFA [1, 4]: ~70%; decrease of IFN-γ compared to the same peptide emulsified in CFA [1, 4]: ~50%
